From ChEMBL document CHEMBL5344435 (J Med Chem, 2024)

Assay: in vivo
Settings: C57BL/6J, mouse, po, 10 mg/kg

Cmax at 24 h: 102 ng/mL
SMILES: [O-][n+]1cc(O)cc(CCCc2ccc(Cl)c(C(F)(F)F)c2)c1
